Results as given in patent US20240262822A1, “WDR5 INHIBITORS AND MODULATORS” (Vanderbilt University, priority 2021, published 2024).

How the values were obtained:
[1] = test system: MV4:11 human cancer cell lines; test: Cellular viability / anti-proliferative activity, CellTiter-Glo, 5 day protocol; type: cell-based; settings: Homo sapiens, MV4-11, 120 h, MV4:11 cells, 5 day incubation, read-out: GI50 for representative compounds on cellular proliferation of MV4:11 human cancer cell lines
Description: Anti-proliferative activity using MLL-harboring cell lines. MV-4-11 and K562 cells are grown in IMDM media supplemented with 10% FBS and 1% penicillin/streptomycin, Molm-13 cells are cultured in RPMI-1640 media supplemented with 10% FBS and 1% penicillin/streptomycin. Viability assays are performed by dispensing 200 cells at 7200 cells/mL into each well of an opaque 384-well plate and adding compounds at the indicated concentrations in a final volume of 32 μL and a final concentration of DMSO of 0.3% for all samples. A certain range of compound concentrations is made through a series of 2-fold dilutions starting 30 μM at the highest, total 22 dilutions. After a set incubation period, 5 day protocol, the viability of cells in each well is assessed using the CellTiter-Glo assay (Promega), read on a 96 Microplane Luminometer (Cytation 3, BioTek). Serial dilutions of each cell type are performed in all assays to generate standard curves and the final densities of cells are determined within the dynamic range of the instrument. GI50 values are calculated based on XLfit software (IDBS, Guildford, UK) with Sigmoidal Dose-Response Model. Each compound is tested in minimum of two replicates. Data are expressed as mean.

[2] = target: T1, WDR5 (Homo sapiens, UniProt P61964); test: Time Resolved-Fluorescence Energy Transfer (TR-FRET) competition assay, displacement of 10mer-Thr-FAM probe from His-tagged WDR5; type: binding; settings: WDR5-His tag 2 nM, 10mer-Thr-FAM 150 nM, 60 minutes at room temperature; read-out: Ki for Exemplified Compounds for Inhibition of WDR5 by TR-FRET assay
T1 construct: WDR5-His Tag (A23, residues 24-334) is expressed and purified in our lab; made in house
Excerpt: Excess 10mer-Thr-FAM probe was utilized with His-tagged WDR5 in conjunction with a commercial anti-His antibody containing a Terbium label. The LanthaScreen™ Elite Tb-anti-HIS Antibody from ThermoFisher Scientific was used for this purpose. This Tb-anti-HIS has an excitation/emission of 340 nm and 490 nm, respectively. The 10mer-Thr-FAM probe when bound to WDR5 will undergo a FRET interaction with the Tb-anti-HIS and emit at 520 nm. […] WDR5-His Tag (A23, residues 24-334) is expressed and purified in our lab in sufficient quantities for screening. 10mer-Thr-FAM peptide is used at 150 nM. WDR5-His tag protein is used at 2 nM. A source plate is prepared using an Echo Liquid Handler, which distributes the compounds to the assay plate (white, flat-bottom; OptiPlate) in a 10-point, 5-fold dilution schemes with a top concentration of 5 μM, in a final volume of 20 μL. A final target (WDR5)/Tb-Ab concentration of 2 nM/1 nM is dispensed from appropriate stock solutions, respectively. The final DMSO concentration in each well of the assay plate is 1% or lower. The plate is covered, shielded from light, and incubated for 60 minutes at room temperature with rocking. 10mer-Thr-FAM and Anti-His terbium antibody fluorescence is then measured on a Biotek Cytation 3 at excitation wavelength of 340 nm, and emission wavelengths of 495 nm and 520 nm. Working buffer conditions contain 1× Phosphate Buffered Saline, 300 mM NaCl, 0.5 mM TCEP, 0.1% CHAPS, at pH 7.2. TR-FRET signal is plotted and IC50 and Ki values are calculated according to the formula of Wang Z. FEBS Lett (1996) 3, 245.
where […] is the concentration of the free inhibitor at 50% inhibition, [L]50 is the concentration of the free labeled ligand at 50% inhibition, [P]0 is the concentration of the free protein at 0% inhibition, Kd represents the dissociation constant of the FITC-MLL or 10mer-Thr-FAM probe for WDR5. Total fluorescence is also measured, to rule out compounds that are inherently fluorescent or able to act as quenchers in the assay. TR-FRET binding assay

| Compound | GI50 [1] | Ki [2] |
| --- | --- | --- |
| COc1cc2nc(C)nc(N3CCc4c(cc(Cn5ccnc5)cc4-c4cn(C)nc4C(F)(F)F)C3=O)c2cc1OC [Example 15, 7-((1H-Imidazol-1-yl)methyl)-2-(6,7-dimethoxy-2-methylquinazolin-4-yl)-5-(1-methyl-3-(trifluoromethyl)-1H-pyrazol-4-yl)-3,4-dihydroisoquinolin-1(2H)-one] | < 20 nM | < 0.02 nM |
| COc1cc2nccc(N3CCc4c(cc(Cn5ccnc5)cc4-c4cn(C)nc4C(F)(F)F)C3=O)c2cc1OC [Example 16, 7-((1H-Imidazol-1-yl)methyl)-2-(6,7-dimethoxyquinolin-4-yl)-5-(1-methyl-3-(trifluoromethyl)-1H-pyrazol-4-yl)-3,4-dihydroisoquinolin-1(2H)-one] | < 20 nM | < 0.02 nM |
| COc1ccc2nccc(N3CCc4c(cc(Cn5ccnc5)cc4-c4cn(C)nc4C(F)(F)F)C3=O)c2n1 [Example 17, 7-((1H-Imidazol-1-yl)methyl)-2-(6-methoxy-1,5-naphthyridin-4-yl)-5-(1-methyl-3-(trifluoromethyl)-1H-pyrazol-4-yl)-3,4-dihydroisoquinolin-1(2H)-one] | 362 nM | 0.03 nM |
| CCc1cc2c(N3CCc4c(cc(Cn5ccnc5)cc4-c4cn(C)nc4C(F)(F)F)C3=O)ccnc2c(C(=O)NC)n1 [Example 20, 4-(7-((1H-Imidazol-1-yl)methyl)-5-(1-methyl-3-(trifluoromethyl)-1H-pyrazol-4-yl)-1-oxo-3,4-dihydroisoquinolin-2(1H)-yl)-6-ethyl-N-methyl-1,7-naphthyridine-8-carboxamide] | 290 nM | < 0.02 nM |
| CCc1cnc2c(c1)C(N1CCc3c(cc(Cn4ccnc4)cc3-c3cn(C)nc3C(F)(F)F)C1=O)COC2 (stereo not drawn) [Example 21, 7-((1H-Imidazol-1-yl)methyl)-2-(3-ethyl-5,8-dihydro-6H-pyrano[3,4-b]pyridin-5-yl)-5-(1-methyl-3-(trifluoromethyl)-1H-pyrazol-4-yl)-3,4-dihydroisoquinolin-1(2H)-one] | < 20 nM | < 0.02 nM |
| COc1cc2c(nc1C)CCCC2N1CCc2c(cc(Cn3ccnc3)cc2-c2cn(C)nc2C(F)(F)F)C1=O (stereo not drawn) [Example 22, 7-((1H-Imidazol-1-yl)methyl)-2-(3-methoxy-2-methyl-5,6,7,8-tetrahydroquinolin-5-yl)-5-(1-methyl-3-(trifluoromethyl)-1H-pyrazol-4-yl)-3,4-dihydroisoquinolin-1(2H)-one] | < 20 nM | < 0.02 nM |
| COc1cc2c(N3CCc4c(cc(Cn5ccnc5)cc4-c4cn(C)nc4C(F)(F)F)C3=O)ncnc2cc1O [Example 23, 7-((1H-Imidazol-1-yl)methyl)-2-(7-hydroxy-6-methoxyquinazolin-4-yl)-5-(1-methyl-3-(trifluoromethyl)-1H-pyrazol-4-yl)-3,4-dihydroisoquinolin-1(2H)-one] | 1280 nM | 0.025 nM |
| COc1cc2ncnc(N3CCc4c(cc(Cn5ccnc5)cc4-c4cn(C)nc4C(F)(F)F)C3=O)c2cc1OC [Example 24, 7-((1H-Imidazol-1-yl)methyl)-2-(6,7-dimethoxyquinazolin-4-yl)-5-(1-methyl-3-(trifluoromethyl)-1H-pyrazol-4-yl)-3,4-dihydroisoquinolin-1(2H)-one] | 25 nM | < 0.02 nM |
| COCCOc1cc2ncnc(N3CCc4c(cc(Cn5ccnc5)cc4-c4cn(C)nc4C(F)(F)F)C3=O)c2cc1OC [Example 25, 7-((1H-Imidazol-1-yl)methyl)-2-(6-methoxy-7-(2-methoxyethoxy)quinazolin-4-yl)-5-(1-methyl-3-(trifluoromethyl)-1H-pyrazol-4-yl)-3,4-dihydroisoquinolin-1(2H)-one] | 310 nM | 0.036 nM |
| COc1cc2c(N3CCc4c(cc(Cn5ccnc5)cc4-c4cn(C)nc4C(F)(F)F)C3=O)ncnc2cc1OCc1ccnn1C [Example 26, 7-((1H-Imidazol-1-yl)methyl)-2-(6-methoxy-7-((1-methyl-1H-pyrazol-5-yl)methoxy)quinazolin-4-yl)-5-(1-methyl-3-(trifluoromethyl)-1H-pyrazol-4-yl)-3,4-dihydroisoquinolin-1(2H)-one] | 76 nM | < 0.02 nM |
| CCc1cc(OC)c2ncnc(N3CCc4c(cc(Cn5ccnc5)cc4-c4cn(C)nc4C(F)(F)F)C3=O)c2c1 [Example 27, 7-((1H-imidazol-1-yl)methyl)-2-(6-ethyl-8-methoxyquinazolin-4-yl)-5-(1-methyl-3-(trifluoromethyl)-1H-pyrazol-4-yl)-3,4-dihydroisoquinolin-1(2H)-one] | < 20 nM | < 0.02 nM |
| CCOc1cc2c(N3CCc4c(cc(Cn5ccnc5)cc4-c4cn(C)nc4C(F)(F)F)C3=O)ncnc2cc1OC [Example 28, 7-((1H-Imidazol-1-yl)methyl)-2-(6-ethoxy-7-methoxyquinazolin-4-yl)-5-(1-methyl-3-(trifluoromethyl)-1H-pyrazol-4-yl)-3,4-dihydroisoquinolin-1(2H)-one] | 64 nM | < 0.02 nM |
| CCOc1cc2ncnc(N3CCc4c(cc(Cn5ccnc5)cc4-c4cn(C)nc4C(F)(F)F)C3=O)c2cc1OC [Example 29, 7-((1H-Imidazol-1-yl)methyl)-2-(7-ethoxy-6-methoxyquinazolin-4-yl)-5-(1-methyl-3-(trifluoromethyl)-1H-pyrazol-4-yl)-3,4-dihydroisoquinolin-1(2H)-one] | 164 nM | 0.032 nM |
| CCOc1cc2ncnc(N3CCc4c(cc(Cn5ccnc5)cc4-c4cn(C)nc4C(F)(F)F)C3=O)c2cc1OCC [Example 30, 7-((1H-Imidazol-1-yl)methyl)-2-(6,7-diethoxyquinazolin-4-yl)-5-(1-methyl-3-(trifluoromethyl)-1H-pyrazol-4-yl)-3,4-dihydroisoquinolin-1(2H)-one] | 47 nM | < 0.02 nM |
| COc1cc2cnnc(N3CCc4c(cc(Cn5ccnc5)cc4-c4cn(C)nc4C(F)(F)F)C3=O)c2cc1OC [Example 31, 7-((1H-Imidazol-1-yl)methyl)-2-(6,7-dimethoxyphthalazin-1-yl)-5-(1-methyl-3-(trifluoromethyl)-1H-pyrazol-4-yl)-3,4-dihydroisoquinolin-1(2H)-one] | < 20 nM | < 0.02 nM |
| COc1cc2c(N3CCc4c(cc(Cn5ccnc5)cc4-c4cn(C)nc4C(F)(F)F)C3=O)ncnc2cc1F [Example 32, 7-((1H-Imidazol-1-yl)methyl)-2-(7-fluoro-6-methoxyquinazolin-4-yl)-5-(l-methyl-3-(trifluoromethyl)-1H-pyrazol-4-yl)-3,4-dihydroisoquinolin-1(2H)-one] | < 20 nM | < 0.02 nM |
| CCc1cc2c(N3CCc4c(cc(Cn5ccnc5)cc4-c4cn(C)nc4C(F)(F)F)C3=O)ccnc2c(OCCOC)n1 [Example 33, 7-((1H-Imidazol-1-yl)methyl)-2-(6-ethyl-8-(2-methoxyethoxy)-1,7-naphthyridin-4-yl)-5-(1-methyl-3-(trifluoromethyl)-1H-pyrazol-4-yl)-3,4-dihydroisoquinolin-1(2H)-one] | < 20 nM | < 0.02 nM |
| CCc1cc2c(N3CCc4c(cc(Cn5ccnc5)cc4-c4cn(C)nc4C(F)(F)F)C3=O)ccnc2c(N2CCCC2)n1 [Example 34, 7-((1H-Imidazol-1-yl)methyl)-2-(6-ethyl-8-(pyrrolidin-1-yl)-1,7-naphthyridin-4-yl)-5-(1-methyl-3-(trifluoromethyl)-1H-pyrazol-4-yl)-3,4-dihydroisoquinolin-1(2H)-one] | 75 nM | < 0.02 nM |
